Experiments:
[1] = target: T1, Adrenergic β2 (H292 cells) (Homo sapiens, UniProt P07550); experiment: Adrenergic β2 Mediated cAMP Production, single concentration 1 μM; type: cell-based; conditions: NCI-H292, 1 μM compound, percentage of the maximum response generated by 1E-07M formoterol, read-out: β2 (% effect at 1 μM)
T1 construct: endogenous in cells; host or cells: H292 cells
Summary of the method: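 cAMP was quantified by AlphaScreen in lysates of H292 cells and reported as a percentage of the 1E-07M formoterol maximum. Before lysis the cells, seeded the previous day, received rolipram (300 μM final) and then test compound at a final 1 μM in 1% DMSO for 60 min at room temperature.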

[2] = target: T2, human muscarinic acetylcholine M3 receptor (M3-ACh) (Homo sapiens, UniProt P20309); experiment: Muscarinic 3 Receptor Binding Assay, % inhibition specific binding at 1 μM; conditions: 1 μM compound, % inhibition specific [3H]-NMS binding
T2 construct: expressed in transfected cells; host or cells: CHO-K1 (Chinese Hamster Ovary) cell membranes
Summary of the method: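 Value is % inhibition of specific [3H]N-methyl scopolamine binding (0.1 nM, quarter Kd) by 1 μM compound, using SPA beads precoated with human M3-expressing CHO-K1 membranes. Buffer HEPES pH 7.4 with MgCl2 and 1% DMSO; 16 h at room temperature; 1 μM atropine sets non-specific binding.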

T1 sequence (P07550 whole entry): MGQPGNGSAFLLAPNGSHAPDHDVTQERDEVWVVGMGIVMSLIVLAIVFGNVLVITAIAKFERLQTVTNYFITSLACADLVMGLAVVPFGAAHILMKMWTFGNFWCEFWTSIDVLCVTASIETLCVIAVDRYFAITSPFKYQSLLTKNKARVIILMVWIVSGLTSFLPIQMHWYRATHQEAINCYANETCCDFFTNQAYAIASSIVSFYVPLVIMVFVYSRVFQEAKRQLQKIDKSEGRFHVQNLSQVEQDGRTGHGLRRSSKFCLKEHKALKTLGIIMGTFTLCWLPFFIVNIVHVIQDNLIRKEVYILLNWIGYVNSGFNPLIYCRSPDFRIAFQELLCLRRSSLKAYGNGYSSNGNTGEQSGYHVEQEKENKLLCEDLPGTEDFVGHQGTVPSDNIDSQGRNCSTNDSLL
T2 sequence (P20309 whole entry): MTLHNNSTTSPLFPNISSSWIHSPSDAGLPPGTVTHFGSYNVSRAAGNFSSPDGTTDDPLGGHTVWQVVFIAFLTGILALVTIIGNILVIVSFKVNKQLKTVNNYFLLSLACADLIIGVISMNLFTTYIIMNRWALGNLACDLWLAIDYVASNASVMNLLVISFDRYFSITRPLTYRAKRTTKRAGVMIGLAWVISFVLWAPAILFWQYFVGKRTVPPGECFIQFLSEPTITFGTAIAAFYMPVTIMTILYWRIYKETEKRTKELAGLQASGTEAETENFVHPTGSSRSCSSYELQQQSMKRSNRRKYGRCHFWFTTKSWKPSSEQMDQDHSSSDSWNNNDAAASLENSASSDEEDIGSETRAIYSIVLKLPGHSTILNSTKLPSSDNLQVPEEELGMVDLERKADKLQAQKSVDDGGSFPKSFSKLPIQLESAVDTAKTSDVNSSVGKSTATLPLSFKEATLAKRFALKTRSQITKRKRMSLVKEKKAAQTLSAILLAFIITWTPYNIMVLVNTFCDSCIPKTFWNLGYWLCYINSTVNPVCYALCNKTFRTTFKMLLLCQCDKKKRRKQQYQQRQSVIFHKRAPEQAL

SMILES	activation at 1 µM [1] [%]	inhibition at 1 µM [2] [%]
Cc1nc2ccccn2c1C(=O)N1CCOC2(CCN(Cc3cc(F)cc(CCNC[C@H](O)c4ccc(O)c5[nH]c(=O)sc45)c3)CC2)C1 [Example 152, (R)-7-(2-(3-fluoro-5-((4-(2-methylimidazo[1,2-a]pyridine-3-carbonyl)-1-oxa-4,9-diazaspiro[5.5]undecan-9-yl)methyl)phenethylamino)-1-hydroxyethyl)-4-hydroxybenzo[d]thiazol-2(3H)-one]	110	13
O=C(c1cc(-c2ccccc2)n[nH]1)N1CCOC2(CCN(Cc3cc(F)cc(CCNC[C@H](O)c4ccc(O)c5[nH]c(=O)sc45)c3)CC2)C1 [Example 155, (R)-7-(2-(3-fluoro-5-((4-(3-phenyl-1H-pyrazole-5-carbonyl)-1-oxa-4,9-diazaspiro[5.5]undecan-9-yl)methyl)phenethylamino)-1-hydroxyethyl)-4-hydroxybenzo[d]thiazol-2(3H)-one]	101	4
COc1ccccc1CC(=O)N1CCOC2(CCN(Cc3cc(F)cc(CCNC[C@H](O)c4ccc(O)c5[nH]c(=O)sc45)c3)CC2)C1 [Example 117, (R)-7-(2-(3-fluoro-5-((4-(2-(2-methoxyphenyl)acetyl)-1-oxa-4,9-diazaspiro[5.5]undecan-9-yl)methyl)phenethylamino)-1-hydroxyethyl)-4-hydroxybenzo[d]thiazol-2(3H)-one]	101	22
Cc1cccc2nc(C(=O)N3CCOC4(CCN(Cc5cc(F)cc(CCNC[C@H](O)c6ccc(O)c7[nH]c(=O)sc67)c5)CC4)C3)cn12 [Example 133, (R)-7-(2-(3-fluoro-5-((4-(5-methylimidazo[1,2-a]pyridine-2-carbonyl)-1-oxa-4,9-diazaspiro[5.5]undecan-9-yl)methyl)phenethylamino)-1-hydroxyethyl)-4-hydroxybenzo[d]thiazol-2(3H)-one]	110	56
O=C(c1ccnn1-c1ccccc1)N1CCOC2(CCN(Cc3cc(F)cc(CCNC[C@H](O)c4ccc(O)c5[nH]c(=O)sc45)c3)CC2)C1 [Example 160, (R)-7-(2-(3-fluoro-5-((4-(1-phenyl-1H-pyrazole-5-carbonyl)-1-oxa-4,9-diazaspiro[5.5]undecan-9-yl)methyl)phenethylamino)-1-hydroxyethyl)-4-hydroxybenzo[d]thiazol-2(3H)-one]	91	5
Cc1cccc(C(=O)N2CCOC3(CCN(Cc4cc(F)cc(CCNC[C@H](O)c5ccc(O)c6[nH]c(=O)sc56)c4)CC3)C2)c1 [Example 122, (R)-7-(2-(3-fluoro-5-((4-(3-methylbenzoyl)-1-oxa-4,9-diazaspiro[5.5]undecan-9-yl)methyl)phenethylamino)-1-hydroxyethyl)-4-hydroxybenzo[d]thiazol-2(3H)-one]	82	86
O=C(CCOc1ccccc1)N1CCOC2(CCN(CCOc3ccc(CNC[C@H](O)c4ccc(O)c5[nH]c(=O)sc45)cc3)CC2)C1 [Example 247, (R)-4-hydroxy-7-(1-hydroxy-2-(4-(2-(4-(3-phenoxypropanoyl)-1-oxa-4,9-diazaspiro[5.5]undecan-9-yl)ethoxy)benzylamino)ethyl) benzo[d]thiazol-2(3H)-one]	75	60
CCn1c(=O)n(CC(=O)N2CCOC3(CCN(Cc4cc(F)cc(CCNC[C@H](O)c5ccc(O)c6[nH]c(=O)sc56)c4)CC3)C2)c2ccccc21 [Example 135, (R)-7-(2-(3-((4-(2-(3-ethyl-2-oxo-2,3-dihydro-1H-benzo[d]imidazol-1-yl)acetyl)-1-oxa-4,9-diazaspiro[5.5]undecan-9-yl)methyl)-5-fluorophenethylamino)-1-hydroxyethyl)-4-hydroxybenzo[d]thiazol-2(3H)-one]	106	1
CC(C)c1cc(C(=O)N2CCOC3(CCN(CCOc4ccc(CNC[C@H](O)c5ccc(O)c6[nH]c(=O)sc56)cc4)CC3)C2)no1 [Example 255, (R)-4-hydroxy-7-(1-hydroxy-2-(4-(2-(4-(5-isopropylisoxazole-3-carbonyl)-1-oxa-4,9-diazaspiro[5.5]undecan-9-yl)ethoxy)benzylamino)ethyl) benzo[d]thiazol-2(3H)-one]	66	32
Cc1cc(CC(=O)N2CCOC3(CCN(CCCCCCCCCNC[C@H](O)c4ccc(O)c5[nH]c(=O)sc45)CC3)C2)on1 [Example 208, (R)-4-hydroxy-7-(1-hydroxy-2-(9-(4-(2-(3-methylisoxazol-5-yl)acetyl)-1-oxa-4,9-diazaspiro[5.5]undecan-9-yl)nonylamino)ethyl)benzo[d]thiazol-2(3H)-one]	98	88
CC(C)n1nnc2cc(C(=O)N3CCOC4(CCN(Cc5cc(F)cc(CCNC[C@H](O)c6ccc(O)c7[nH]c(=O)sc67)c5)CC4)C3)ccc21 [Example 142, (R)-7-(2-(3-fluoro-5-((4-(1-isopropyl-1H-benzo[d][1,2,3]triazole-5-carbonyl)-1-oxa-4,9-diazaspiro[5.5]undecan-9-yl)methyl)phenethylamino)-1-hydroxyethyl)-4-hydroxybenzo[d]thiazol-2(3H)-one]	100	-3
CC(C)(C)c1nc(C(=O)N2CCOC3(CCN(CCOc4ccc(CNC[C@H](O)c5ccc(O)c6[nH]c(=O)sc56)cc4)CC3)C2)cs1 [Example 257, (R)-7-(2-(4-(2-(4-(2-tert-butylthiazole-4-carbonyl)-1-oxa-4,9-diazaspiro[5.5]undecan-9-yl)ethoxy)benzylamino)-1-hydroxyethyl)-4-hydroxy-benzo[d]thiazol-2(3H)-one]	56	36
Cc1occc1C(=O)N1CCOC2(CCN(CCCCCCCCCNC[C@H](O)c3ccc(O)c4[nH]c(=O)sc34)CC2)C1 [Example 197, (R)-4-hydroxy-7-(1-hydroxy-2-(9-(4-(2-methylfuran-3-carbonyl)-1-oxa-4,9-diazaspiro[5.5]undecan-9-yl)nonylamino)ethyl)benzo[d]thiazol-2(3H)-one]	78	97
CC(C)(C(=O)N1CCOC2(CCN(Cc3cc(F)cc(CCNC[C@H](O)c4ccc(O)c5[nH]c(=O)sc45)c3)CC2)C1)c1ccccc1 [Example 176, (R)-7-(2-(3-fluoro-5-((4-(2-methyl-2-phenylpropanoyl)-1-oxa-4,9-diazaspiro[5.5]undecan-9-yl)methyl)phenethylamino)-1-hydroxyethyl)-4-hydroxybenzo[d]thiazol-2(3H)-one]	87	16
COc1ccc(OC)c(C(=O)N2CCOC3(CCN(Cc4cc(F)cc(CCNC[C@H](O)c5ccc(O)c6[nH]c(=O)sc56)c4)CC3)C2)c1 [Example 136, (R)-7-(2-(3-((4-(2,5-dimethoxybenzoyl)-1-oxa-4,9-diazaspiro[5.5]undecan-9-yl)methyl)-5-fluorophenethylamino)-1-hydroxyethyl)-4-hydroxybenzo[d]thiazol-2(3H)-one]	111	26
O=C(Cn1c(C(F)(F)F)nc2ccccc21)N1CCOC2(CCN(Cc3cc(F)cc(CCNC[C@H](O)c4ccc(O)c5[nH]c(=O)sc45)c3)CC2)C1 [Example 177, (R)-7-(2-(3-fluoro-5-((4-(2-(2-(trifluoromethyl)-1H-benzo[d]imidazol-1-yl)acetyl)-1-oxa-4,9-diazaspiro[5.5]undecan-9-yl)methyl)phenethylamino)-1-hydroxyethyl)-4-hydroxybenzo[d]thiazol-2(3H)-one]	78	1
O=C(c1ccc2cc[nH]c2c1)N1CCOC2(CCN(Cc3cc(F)cc(CCNC[C@H](O)c4ccc(O)c5[nH]c(=O)sc45)c3)CC2)C1 [Example 140, (R)-7-(2-(3-((4-(1H-indole-6-carbonyl)-1-oxa-4,9-diazaspiro[5.5]undecan-9-yl)methyl)-5-fluorophenethylamino)-1-hydroxyethyl)-4-hydroxybenzo[d]thiazol-2(3H)-one]	109	76
O=C(CCCc1ccccc1)N1CCOC2(CCN(CCCCCCCCCNC[C@H](O)c3ccc(O)c4[nH]c(=O)sc34)CC2)C1 [Example 188, (R)-4-hydroxy-7-(1-hydroxy-2-(9-(4-(4-phenylbutanoyl)-1-oxa-4,9-diazaspiro[5.5]undecan-9-yl)nonylamino)ethyl)benzo[d]thiazol-2(3H)-one]	93	96
O=C(c1cc2cc(Cl)ccc2o1)N1CCOC2(CCN(Cc3cc(F)cc(CCNC[C@H](O)c4ccc(O)c5[nH]c(=O)sc45)c3)CC2)C1 [Example 182, (R)-7-(2-(3-((4-(5-chlorobenzofuran-2-carbonyl)-1-oxa-4,9-diazaspiro[5.5]undecan-9-yl)methyl)-5-fluorophenethylamino)-1-hydroxyethyl)-4-hydroxybenzo[d]thiazol-2(3H)-one]	88	16
O=C(CCc1cccs1)N1CCOC2(CCN(CCOc3ccc(CNC[C@H](O)c4ccc(O)c5[nH]c(=O)sc45)cc3)CC2)C1 [Example 248, (R)-4-hydroxy-7-(1-hydroxy-2-(4-(2-(4-(3-(thiophen-2-yl)propanoyl)-1-oxa-4,9-diazaspiro[5.5]undecan-9-yl)ethoxy)benzylamino)ethyl) benzo[d]thiazol-2(3H)-one]	70	44

Source: patent US8148373B2, “Compounds” (AstraZeneca AB, priority 2008, dated 2012)
